Reference: patent US20250249056A1, “CANCER THERAPIES COMPRISING A NUCLEAR EXPORT INHIBITOR AND AN ONCOLYTIC VIRUS” (priority 2022, published 2025)
Entries after “also recorded” stand apart in the source; their conditions may differ.

Tests used:
PANC-1 cells = test: CyQUANT NF cell proliferation assay (PANC-1); type: cell-based, human; settings: after 24 hours compared to mock treated cells, selinexor 0.1 or 1 μM, multiple MOI
Protocol: Cell Proliferation Assay: To measure cancer cell proliferation based on the amount of cellular DNA, the CyQuant™ NF Cell Proliferation Assay Kit (Invitrogen) was used according to the manufacturer's instructions. Briefly, PANC-1, HT29, MDA-MB435, and Colo205 cells were seeded in a 96-well plate (1×10^4 cells/well) and left to attach to the wells overnight. The next day, the medium was removed and replaced with 50 μL medium containing different concentrations of selinexor (0-1 μM). After an hour of incubation with selinexor, the virus was added to different MOIs (0.5-5), bringing the end volume of every well up to 100 μL. A 1× dye binding solution was prepared by adding 9 μL of the CyQuant™ NF Dye reagent in 4.5 mL Hank's Balanced Salt Solution (HBSS) buffer (Invitrogen). After 24, 48, 72, and 96 hours of incubation, the medium was removed from the cells and 50 μL 1× dye solution was added to all wells. The microplate was covered to protect it from light and was incubated for 30-60 minutes in a 5% CO2 incubator at 37° C. Subsequently, cell proliferation was quantified by measuring fluorescence with an excitation of 485 nm and emission of 530 nm in a VarioSkan Lux Microplate reader (Thermo Fisher). All experiments were performed in quadruple and normalized to mock-treated cells.

[1] = system: PANC-1, Colo205, HT29, and MDMB435 cells; test: Cell viability assay (MTS); type: cell-based, human
Protocol: To further assess the inhibition of cell proliferation, and investigate if cell death is enhanced, cell viability assays were performed using an MTS assay to detect metabolic activity in active cells. For this assay, PANC-1 (FIG. 5A through FIG. 5D), Colo205 (FIG. 5E through FIG. 5H), HT29, and MDMB435 cells were treated with different concentrations of selinexor, infected with MYXB at different MOIs, or treated with a combination of selinexor and MYXB, and cell viability was measured at different time points.
Cell Viability Assay: To assess the viability of different human cancer cells after selinexor treatment or MYXV infection, 10,000 cells were seeded into each well of a 96-well plate. The next day, cells were treated with different concentrations of selinexor, infected with different MOIs of MYXV, or treated with different concentrations of selinexor for 1 hour followed by infection with different MOIs of MYXV. A minimum of four wells were used for each treatment condition, and untreated cells (mock) served as controls. Cell viability was assessed at 24, 48, 72, and 96 hours using an MTS assay.

Colo205 xenograft tumors = test: Colo205 xenograft tumor model in NSG mice; type: in vivo
Protocol: To test the ability of selinexor to enhance MYXV replication in vivo, a xenograft tumor model was established in immunodeficient NSG mice. Human Colo205 (FIG. 7) and HT29 (FIG. 8) cells were injected subcutaneously on both sides of the flank to generate tumors (FIG. 7A). After the tumors size reached between 100-200 mm^3 (2-3 weeks), mice were separated into treatment groups to have approximately equal average tumor sizes. Animals (n=5) were treated with PBS (oral and IT right tumor), selinexor (oral, 15 mg/kg), vMyx-Fluc (wild-type MYXV expressing Firefly luciferase and TdTomato; IT left tumor, 1×10^7 FFU), or selinexor (oral) and vMyx-Fluc (IT left tumor). After 48 hours post-treatment mice were imaged using an IVIS system for luciferase expression. […] Subsequently, mice received 2nd and 3rd doses of selinexor and a second IT injection of MYXV in the same tumor. […] Additionally, tumor burden was measured on both flanks during the course of treatment (FIG. 7F, FIG. 7G, FIG. 8E, and FIG. 8F).
Animal Studies: Male and female NSG mice were purchased from Jackson laboratory at 6-8 weeks of age. Animals were housed under sterile conditions. The animals were acclimatized for at least seven days before tumor implantation or any experimental procedures. Cells (1×10^6/mouse in 100 μL PBS) were subcutaneously injected into the flanks of NSG mice. When the average tumor volumes reached 50-200 mm^3, the mice were randomized into different treatment groups of five or six animals such that each treatment group had approximately the same average tumor volume. Tumor volume was measured two or three times per week as follows: volume=(length×width^2)/2. When the tumor volume reached 1.5-2 cm^3 animals were euthanized and tumors were collected for histology or processed for virus titration. To detect MYXV replication in the tumor bed luciferin was injected via IP delivery and bioluminescence images taken (Xenogen IVIS 2000).

[2] = system: Lewis lung carcinoma (LLC1) cells; test: Lewis lung carcinoma (LLC1) tumor model in immunocompetent C57BL/6 mice; type: in vivo; settings: single agents; selinexor 15 mg/kg oral; MYXV expressing IL15/IL15Ra (vMyx-IL15Ra) IT 5×10^7 FFU; left and right tumors
Protocol: To verify that the combination of selinexor and MYXV is effective even in mice with a competent immune system, C57BL/6 mice were inoculated with mouse Lewis lung carcinoma (LLC1) cells (FIG. 14A). LLC1 cells were subcutaneously injected on both sides of the flank in C57BL/6 mice. Mice were separated into treatment groups and treated with PBS, selinexor, MYXV expressing IL15/IL15Ra (IT, 5×10^7), or selinexor+MYXV expressing IL15/IL15Ra.
The tumor burden on each flank was measured twice every week.

MYXV = MYXV reporter gene expression (GFP/TdTomato) and foci by fluorescence microscopy in human cancer cell lines

`O=C(/C=C\n1cnc(-c2cc(C(F)(F)F)cc(C(F)(F)F)c2)n1)NNc1cnccn1` [selinexor] was tested, and the “cell proliferation (DNA content)” value (PANC-1 cells) was “significant reductions in cell proliferation”, the cell viability ([1]; selinexor 0.5 μM or 1 μM, over time, all cells tested) was 50% and the cell viability ([1]; selinexor alone 0.1 μM or 0.05 μM) was “no effect on cell viability; also recorded: almost no effect”. The “luciferase expression (IVIS) vs virus alone” value (Colo205 xenograft tumors; 48 hours after first vMyx-Fluc IT injection, selinexor oral 15 mg/kg) was “significantly higher levels of luciferase”, the “luciferase signal (IVIS) vs virus alone” value (Colo205 xenograft tumors; after second treatment) was “significantly enhanced level of luciferase signal” and the “tumor burden compared to PBS or MYXV-only” value (Colo205 xenograft tumors; both flanks, selinexor oral 15 mg/kg, vMyx-Fluc IT 1×10^7 FFU) was “significantly reduced tumor burden”. For the same compound, the tumor burden [2] was “significantly reduced tumor burden”, the “GFP and TdTomato reporter protein expression” value (MYXV; PANC-1, Colo205, MDA-MB435, HCT116, selinexor 0.1-10 μM pre-treatment 1 h, vMyx-GFP-TdTomato MOI 5, 48 h post-infection) was “Enhanced GFP and TdTomato reporter protein expression” and the “foci formation in restricted human cancer cell lines” value (MYXV; infected at low MOI, selinexor treatment) was “formation of small foci”. The “cell death caused by selinexor alone” value (MYXV; selinexor 10 μM or higher, all cancer cell lines tested) was “enhanced cell death”.
